The EC50 is the concentration giving half of the maximal effect. Low readings indicate an effect from little substance, high ones a need for much substance.

The target of the test is T1, Signal transducer and activator of transcription 1-alpha/beta (Homo sapiens, UniProt P42224).
T1 sequence (P42224 whole entry): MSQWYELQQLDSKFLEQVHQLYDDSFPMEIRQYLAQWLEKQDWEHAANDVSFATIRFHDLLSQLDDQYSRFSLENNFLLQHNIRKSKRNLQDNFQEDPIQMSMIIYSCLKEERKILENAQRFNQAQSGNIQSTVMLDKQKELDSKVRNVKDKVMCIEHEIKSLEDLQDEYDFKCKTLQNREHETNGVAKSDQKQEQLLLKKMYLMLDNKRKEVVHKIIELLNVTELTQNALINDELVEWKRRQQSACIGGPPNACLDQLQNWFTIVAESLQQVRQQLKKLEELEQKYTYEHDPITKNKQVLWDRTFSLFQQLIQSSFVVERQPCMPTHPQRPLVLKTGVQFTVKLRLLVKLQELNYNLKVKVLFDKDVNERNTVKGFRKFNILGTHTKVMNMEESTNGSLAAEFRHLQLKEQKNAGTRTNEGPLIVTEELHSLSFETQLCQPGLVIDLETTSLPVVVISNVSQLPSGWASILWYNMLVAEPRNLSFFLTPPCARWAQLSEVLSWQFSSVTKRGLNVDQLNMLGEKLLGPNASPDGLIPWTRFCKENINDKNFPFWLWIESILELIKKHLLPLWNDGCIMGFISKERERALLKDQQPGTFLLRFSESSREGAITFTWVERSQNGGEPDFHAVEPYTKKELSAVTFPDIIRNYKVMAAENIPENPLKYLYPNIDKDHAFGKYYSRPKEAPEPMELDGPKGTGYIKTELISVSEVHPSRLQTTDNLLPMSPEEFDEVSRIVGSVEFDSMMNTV
Nature of the test: PubChem AID 1406.

For `Cc1[nH]n(-c2ccccc2)c(=O)c1C=C1C(=O)NC(=O)NC1=O`, the concentration giving a half-maximal response (EC50) is greater than 55.7 µM.

Values taken from BindingDB's records for doi:10.7270/Q2HM56V2 (The Scripps Research Institute Molecular Screening Center, 2008).
